Like-named read-outs stand apart in the source and are kept apart here.
Tests used:
[1] = test system: utrophin protein in human muscle cells derived from DMD patients; conditions: cited from earlier work; for increase of utrophin protein content in human muscle cells (reported for glucocorticoids): Courdier-Fruh et al. 2002
[2] = test system: utrophin protein in human muscle cells derived from DMD patients; assay: Cell-based ELISA for normalized utrophin protein level in primary human myotube cultures; conditions: for % UTR vs. PDN (normalized utrophin protein as % of PDN-treated sister cultures): same experiment; for activity at 0.5 µM: Myotube, read-out: % UTR vs. DMSO (normalized utrophin protein over DMSO-solvent treated control)
Description: The method used to detect and determine utrophin-inducing activity of non-glucocorticoid steroids has been described previously (Courdier-Fruh, I., Barman, L., Briguet, A. & Meier, T.; 2002, Neuromuscul. Disord.; 12 Suppl:S95). Briefly, primary human muscle cell cultures were prepared according to standard protocols (Askanas V, Kwan H, Alvarez R B, Engel W K, Kobayashi T, Martinuzzi A, Hawkins E F., 1987, J Neurocytol., 16:523-537). Test compounds and the glucocorticoid 6α-methylprednisolone-21 sodium succinate (Pharmacia & Upjohn; Solu-Medrol®, PDN) as reference compound were applied at 500 nM final concentration as soon as myoblasts started to differentiate into myotubes. Incubation with the test compound was ended as soon as well differentiated myotubes have formed, typically resulting in an incubation time with a test compound for 3-7 days.
Normalized concentrations of utrophin protein in human muscle cells cultured in microtiter plates were determined by a cell-based enzyme-linked immunosorbent assay (ELISA) procedure that allows a successive readout for the cell density and utrophin protein level. For calibration, the cell density and differentiation was determined by absorbance measurements of the total dehydrogenase enzyme activity in each well using the colorimetric CellTiter 96®AQ One Solution Reagent Proliferation Assay (Promega) according to the manufacturer's recommendation. Subsequently, cells were fixed, washed, permeabilized with 0.5% (v/v) Triton X-100 and unspecific antibody binding-sites were blocked by standard procedures. Utrophin protein levels were determined immunologically with utrophin-specific primary antibodies (mouse monoclonal antibody to the amino terminal portion of utrophin, NCL-DRP2, Novocastra Laboratories) and with appropriate peroxidase-coupled secondary antibodies using QuantaBlu™ Fluorogenic Peroxidase Substrate Kit (Pierce) for detection. Fluorescence measurements were carried out with a multilabel counter (Wallac) at λex=325 nm and at λem=420 nm. The primary readout of this signal is presented in arbitrary units. For calibration, the arbitrary units representing the relative utrophin protein content of each well were divided by the corresponding cell-titer absorbance value to correct for cell density. For comparison between experiments, the cell-titer corrected readout for utrophin protein content in each well was expressed in percent of solvent treated control cultures (set to 100%). PDN was included in all experiments as reference glucocorticoid, N=3-5 for each compound tested.
Non-glucocorticoid test compounds, applied in a concentration of 500 nM, were regarded as “positive” in case the increase in the level of utrophin protein was at least 20% (mean value) over control cultures treated with the appropriate dilution of DMSO solvent as control and containing no test compound.
A range of different pharmaceutical compounds were tested for their ability to increase levels of utrophin protein in primary human myotube cultures. The cell-based ELISA protocol used to detect the level of utrophin protein is provided above and described in Courdier-Fruh, I., Barman, L., Briguet, A. & Meier, T, 2002, Neuromuscul. Disord.: 12, Suppl:S95. Briefly, fixed and permeabilized human muscle cells derived from DMD patients and cultured in 96-well cell culture plates were incubated with antibodies specific for utrophin at a dilution of 1:1'000 in blocking solution (phosphate buffered saline (PBS) supplemented with 2% fetal calf serum and 1% bovine serum albumin) for 10-15 hours at 4° C. Following several washing steps with 0.1% Triton X-100 in PBS, peroxidase-coupled secondary antibodies diluted 1:3'000 in blocking solution were applied in each well for 1-2 hours at room temperature. Signal detection, data acquisition and normalization was performed as described above and in Courdier-Fruh, I., Barman, L., Briguet, A. & Meier, T, 2002, Neuromuscul. Disord.: 12, Suppl:S95. […]

[3] = 500 nM compound, human muscle cultures, mean value, N=3-6

Molecule | % UTR vs. PDN (normalized utrophin protein as % of PDN-treated sister cultures) [2, 3] | activity at 0.5 µM ([2]; Homo sapiens) | other results
CC1(C)O[C@@H]2C[C@H]3[C@@H]4CCC5=CC(=O)CC[C@]5(C)[C@@]4(F)[C@@H](O)C[C@]3(C)[C@]2(C(=O)CCl)O1 [halcinonide] | – | – | increase of utrophin protein content in human muscle cells (reported for glucocorticoids) [1]: increase of utrophin protein content
C[C@@H]1C[C@H]2[C@@H]3CCC4=CC(=O)C=C[C@]4(C)[C@@]3(F)[C@@H](O)C[C@]2(C)[C@@]1(O)C(=O)CO [dexametasone] | – | – | increase of utrophin protein content in human muscle cells (reported for glucocorticoids) [1]: increase of utrophin protein content
C[C@H]1C[C@@H]2[C@H]([C@@H](O)C[C@@]3(C)[C@H]2CC[C@]3(O)C(=O)CO)[C@@]2(C)C=CC(=O)C=C12 [α-methylprednisolone] | – | – | increase of utrophin protein content in human muscle cells (reported for glucocorticoids) [1]: increase of utrophin protein content
C[C@H]1C[C@@H]2[C@H]([C@@H](O)C[C@@]3(C)[C@H]2CC[C@]3(O)C(=O)COC(=O)CCC(=O)[O-])[C@@]2(C)C=CC(=O)C=C12.[Na+] [PDN, 6α-methylprednisolone-21 sodium succinate, reference compound] | – | – | utrophin protein levels normalized to cell density (UTR, relative units) compared to solvent-treated control (DMSO) ([2]; human DMD-patient derived muscle cells, 500 nM, FIG. 1 / FIG. 2, N=5-6): up to 200%; inhibition of PDN-mediated utrophin increase by RU38486 ([1]; simultaneous exposure to RU38468, previous experiments (Courdier-Fruh 2002)): could be inhibited
CC(=O)O[C@H]1CC[C@]2(C)C3C[C@@H](O)[C@]4(C)C5[C@H](C[C@H]4[C@@H]3CC[C@H]2C1)O[C@]1(CCC(C)CO1)[C@H]5C (stereo partly shown) [Example 21] | 105% | 130% | –
C#C[C@]1(OC(C)=O)CCC2C3CCC4=C[C@@H](OC(C)=O)CC[C@@H]4C3CC[C@@]21C (stereo partly shown) [Example 45] | 99% | – | activity at 0.5 µM [2, 3]: 130%
CC(CCC(=O)O)C1CCC2C3CC[C@@H]4CC(=O)CC[C@]4(C)C3CC[C@]12C (stereo partly shown) [Example 8] | 99% | – | activity at 0.5 µM [2, 3]: 120%
CC(=O)[C@@]12O[C@@H]1CC1C3CC(C)=C4C[C@@H](O)CC[C@]4(C)C3CC[C@@]12C (stereo partly shown) [Example 61] | 100% | 130% | –
CC(C)CCCC(C)[C@H]1CCC2C3=CC[C@H]4C[C@@H](O)CC[C@]4(C)C3CC[C@@]21C (stereo partly shown) [Example 33] | 99% | 125% | –
CC(=O)[C@H]1CCC2C3CCC4=CC(=O)CC[C@]4(C)C3[C@H](O)C[C@@]21C (stereo partly shown) [Example 58] | 102% | 133% | –
CC(=O)[C@@]12O[C@@H]1CC1C3CC=C4C[C@@H](O)CC[C@]4(C)C3CC[C@@]12C (stereo partly shown) [Example 56] | 105% | 137% | –
CC(=O)OCC(=O)[C@H]1CCC2C3CC[C@@H]4C[C@H](OC(C)=O)CC[C@]4(C)C3[C@@H](O)C[C@@]21C (stereo partly shown) [Example 52] | 112% | 145% | –
CC(=O)[C@@]1(O)CCC2C3CCC4=CC(=O)CC[C@]4(C)C3CC[C@@]21C (stereo partly shown) [Example 66] | 97% | – | activity at 0.5 µM [2, 3]: 127%
Norethisterone [Example 40] | 106% | – | % UTR vs. DMSO (normalized utrophin protein over DMSO-solvent treated control) [2, 3]: 134%
CCOC(=O)[C@H]1CCC2C3CC=C4C[C@@H](OC(=O)c5ccccc5)CC[C@]4(C)C3CC[C@@]21C (stereo partly shown) [Example 17] | 103% | 120% | –
CC(=O)OCC(=O)[C@@]12O[C@@H]1CC1C3CC[C@@H]4C[C@H](O)CC[C@]4(C)C3CC[C@@]12C (stereo partly shown) [Example 68] | 95% | 125% | –
C#C[C@]1(O)CCC2C3CCC4=CC(=O)CC[C@@H]4C3CC[C@@]21CC (stereo partly shown) [Example 41, Norgestrel] | 103% | – | activity at 0.5 µM [2, 3]: 130%
C#C[C@]1(OC(C)=O)CC[C@H]2[C@@H]3CCC4=CC(=O)CC[C@@H]4[C@H]3CC[C@@]21C [Example 42, Norethisterone acetate] | 101% | – | activity at 0.5 µM [2, 3]: 128%
CC1(C)O[C@@H]2C[C@H]3[C@@H]4C[C@H](F)C5=CC(=O)C=C[C@]5(C)[C@@]4(F)[C@@H](O)C[C@]3(C)[C@]2(C(=O)CO)O1 [fluocinolone acetonide] | – | – | increase of utrophin protein content in human muscle cells (reported for glucocorticoids) [1]: increase of utrophin protein content

— patent US20070259837A1, “Use of Non-Glucocorticoid Steroids for the Treatment of Muscular Dystrophy” (SANTHERA PHARMACEUTICALS (SCHWEIZ) AG, priority 2004, published 2007)
